Measured values taken from ChEMBL document CHEMBL1201862, “PubChem BioAssay data set” (2004).
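Step 1: Grow cells in 96-well plates. Step 2: Expose to compound for 48 hours at 5 concentrations. Step 3: Interpolate endpoints linearly; if unreached, use highest concentration. GI50 is the concentration that inhibits growth by half.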 The source made the active and inactive calls. No stated cut-off is given here; in the data, active = GI50 up to about 1.1 µM and inactive = higher.

Assays:
Assay in all cases: NCI anticancer screen, dose series, 48 h
BT-549 = test system: BT-549
COLO 205 = test system: COLO 205
HCC 2998 = test system: HCC 2998
HCT-116 = test system: HCT-116
HOP-92 = test system: HOP-92
K562 = test system: K562
MCF7 = test system: MCF7
MDA-MB-231 = test system: MDA-MB-231
MDA-MB-435 = test system: MDA-MB-435
NCI-H226 = test system: NCI-H226
OVCAR-4 = test system: OVCAR-4
PC-3 = test system: PC-3
SF-539 = test system: SF-539
SK-MEL-28 = test system: SK-MEL-28
SN12C = test system: SN12C
SR = test system: SR
T47D = test system: T47D
U-251 = test system: U-251
UACC-257 = test system: UACC-257

Structure (SMILES) | GI50 (BT-549) | GI50 (COLO 205) | GI50 (HCC 2998) | GI50 (HCT-116) | GI50 (HOP-92) | GI50 (K562) | GI50 (MCF7) | GI50 (MDA-MB-231) | GI50 (MDA-MB-435) | GI50 (NCI-H226) | GI50 (OVCAR-4) | GI50 (PC-3) | GI50 (SF-539) | GI50 (SK-MEL-28) | GI50 (SN12C) | GI50 (SR) | GI50 (T47D) | GI50 (U-251) | GI50 (UACC-257)
COc1cccc(C2c3cc4c(cc3OC(N3CCCC3)C2C)OCO4)c1O (centres undefined) | 3.79 µM (inactive) | 3.37 µM (inactive) | 12.2 µM (inactive) | 4.61 µM (inactive) | 7.82 µM (inactive) | 3.74 µM (inactive) | 6.68 µM (inactive) | 8.02 µM (inactive) | 1.64 µM (inactive) | 4.53 µM (inactive) | 9.35 µM (inactive) | 4.49 µM (inactive) | 3.03 µM (inactive) | 6.5 µM (inactive) | 4.84 µM (inactive) | 4.38 µM (inactive) | 9.95 µM (inactive) | 3.49 µM (inactive) | 4.41 µM (inactive)
Cc1cc(=O)oc2c(CN(CCCl)CCCl)c(O)ccc12 | 21.1 µM (inactive) | 18 µM (inactive) | 28.4 µM (inactive) | 27.8 µM (inactive) | > 100 µM (inactive) | 34.5 µM (inactive) | 11.4 µM (inactive) | > 100 µM (inactive) | 57.3 µM (inactive) | 35.3 µM (inactive) | > 100 µM (inactive) | 44 µM (inactive) | 20.6 µM (inactive) | 65.5 µM (inactive) | 20.7 µM (inactive) | 43.6 µM (inactive) | 31.5 µM (inactive) | 38.4 µM (inactive) | > 100 µM (inactive)
Cc1ccc(-c2ccc3c(c2)Sc2ccccc2O3)n1C | 3.29 µM (inactive) | 0.232 µM (active) | 0.171 µM (active) | 0.167 µM (active) | 19.8 µM (inactive) | 0.137 µM (active) | 0.324 µM (active) | 1.19 µM (inactive) | 0.0263 µM (active) | 19.9 µM (inactive) | 1.32 µM (inactive) | 0.348 µM (active) | 0.308 µM (active) |  | 0.306 µM (active) | 0.0675 µM (active) | > 100 µM (inactive) | 0.329 µM (active) | 19.5 µM (inactive)
CN1CN(c2ccccc2)C2(CCN(CC(C)(c3ccc(F)cc3)C3OCCCO3)CC2)C1=O (centres undefined) | 5.31 µM (inactive) | 17.7 µM (inactive) |  | 14.9 µM (inactive) |  | 13.2 µM (inactive) | 13 µM (inactive) | 24.2 µM (inactive) | 10.9 µM (inactive) | 18.9 µM (inactive) |  | 17.4 µM (inactive) | 13.2 µM (inactive) | 16.8 µM (inactive) | 18.1 µM (inactive) | 10 µM (inactive) | 17.7 µM (inactive) | 12.8 µM (inactive) | 16 µM (inactive)
CCN1CN(c2ccccc2)C2(CCN(CCCSc3ccc(F)cc3)CC2)C1=O | 8.61 µM (inactive) | 2.41 µM (inactive) |  | 4.36 µM (inactive) |  | 12.9 µM (inactive) | 3.48 µM (inactive) | 12.7 µM (inactive) | 12.8 µM (inactive) | 16.8 µM (inactive) |  | 11.8 µM (inactive) | 9.4 µM (inactive) | 17.3 µM (inactive) | 8.47 µM (inactive) | 11.8 µM (inactive) | 3.26 µM (inactive) | > 10 µM (inactive) | 6.11 µM (inactive)
CC(=O)OCCOCn1cc(C=O)c2ccccc21 | > 100 µM (inactive) | > 100 µM (inactive) | > 100 µM (inactive) | > 100 µM (inactive) | > 100 µM (inactive) | > 100 µM (inactive) | > 100 µM (inactive) | > 100 µM (inactive) | > 100 µM (inactive) |  |  | > 100 µM (inactive) | > 100 µM (inactive) | > 100 µM (inactive) | > 100 µM (inactive) | > 100 µM (inactive) | > 100 µM (inactive) | > 100 µM (inactive) | > 100 µM (inactive)
COc1cccc(NC(=O)CC(=O)NN)c1 | > 100 µM (inactive) | > 100 µM (inactive) |  | > 100 µM (inactive) | > 100 µM (inactive) | > 100 µM (inactive) | > 100 µM (inactive) | > 100 µM (inactive) | > 100 µM (inactive) | > 100 µM (inactive) | > 100 µM (inactive) | > 100 µM (inactive) | > 100 µM (inactive) | > 100 µM (inactive) | > 100 µM (inactive) | > 100 µM (inactive) | > 100 µM (inactive) | > 100 µM (inactive) | > 100 µM (inactive)
O=C(O)C#Cc1ccc([N+](=O)[O-])cc1 | > 100 µM (inactive) | > 100 µM (inactive) | > 100 µM (inactive) | > 100 µM (inactive) | > 100 µM (inactive) | > 100 µM (inactive) | > 100 µM (inactive) | > 100 µM (inactive) | > 100 µM (inactive) | > 100 µM (inactive) | > 100 µM (inactive) | > 100 µM (inactive) | > 100 µM (inactive) | > 100 µM (inactive) | > 100 µM (inactive) | > 100 µM (inactive) | > 100 µM (inactive) | > 100 µM (inactive) | > 100 µM (inactive)
COC(=O)c1cnn2c1n[n+]([O-])c1ccccc12 | > 100 µM (inactive) | 85.5 µM (inactive) |  | > 100 µM (inactive) | > 100 µM (inactive) | > 100 µM (inactive) | > 100 µM (inactive) | > 100 µM (inactive) | > 100 µM (inactive) | > 100 µM (inactive) |  | > 100 µM (inactive) |  | > 100 µM (inactive) | > 100 µM (inactive) | > 100 µM (inactive) | > 100 µM (inactive) | > 100 µM (inactive) | > 100 µM (inactive)
CCOC1(OCC)N=C(N)C2(C#N)C3(C(=O)N(C(C)C)N=C3C)C12C#N (centres undefined) | > 100 µM (inactive) | > 100 µM (inactive) | > 100 µM (inactive) | > 100 µM (inactive) | > 100 µM (inactive) | > 100 µM (inactive) | > 100 µM (inactive) | > 100 µM (inactive) | > 100 µM (inactive) | > 100 µM (inactive) | > 100 µM (inactive) | > 100 µM (inactive) | > 100 µM (inactive) | > 100 µM (inactive) | > 100 µM (inactive) | 45.4 µM (inactive) | > 100 µM (inactive) | > 100 µM (inactive) | > 100 µM (inactive)
CCOC(=O)CCC(NC(=O)c1ccc(Oc2nc3c(N)cc(C(F)(F)F)cc3nc2-c2ccccc2)cc1)C(=O)OCC (centres undefined) | > 50.6 µM (inactive) | > 100 µM (inactive) | 67.8 µM (inactive) | 2.14 µM (inactive) | 56.8 µM (inactive) | > 100 µM (inactive) | 37.1 µM (inactive) | 19 µM (inactive) | 59.8 µM (inactive) | 2.76 µM (inactive) | 19.2 µM (inactive) | 8.32 µM (inactive) | 1.67 µM (inactive) | > 100 µM (inactive) | 45.9 µM (inactive) | 9.95 µM (inactive) | 39.6 µM (inactive) | 32.6 µM (inactive) | > 27.9 µM (inactive)
C=C(C)[C@H]1C=C[C@@H](OC(=O)c2cccnc2)[C@@]23CO[C@@](C)([C@H](OC(=O)c4cccnc4)[C@@]4(OC(C)=O)C[C@H](C)[C@H](OCCC)[C@@H]4[C@H]2OC(C)=O)[C@H]13 | > 15 µM (inactive) | 8.09 µM (inactive) | > 15 µM (inactive) | > 15 µM (inactive) | > 15 µM (inactive) | 7.73 µM (inactive) | > 15 µM (inactive) | > 15 µM (inactive) | 9.68 µM (inactive) | > 15 µM (inactive) | 10.3 µM (inactive) | 7.74 µM (inactive) | > 15 µM (inactive) |  | > 15 µM (inactive) | 11.9 µM (inactive) | > 15 µM (inactive) | > 15 µM (inactive) | > 15 µM (inactive)
Cc1ccccc1S(=O)(=O)OC1NS(=O)(=O)c2ccccc21 (centres undefined) | > 100 µM (inactive) | > 100 µM (inactive) | > 100 µM (inactive) | > 100 µM (inactive) | > 100 µM (inactive) | > 100 µM (inactive) | > 100 µM (inactive) | > 100 µM (inactive) | > 100 µM (inactive) |  | > 100 µM (inactive) | > 100 µM (inactive) | > 100 µM (inactive) | > 100 µM (inactive) | > 100 µM (inactive) | > 100 µM (inactive) | > 100 µM (inactive) | > 100 µM (inactive) | > 100 µM (inactive)
CO[C@@H]1C=C[C@@]23c4cc5c(cc4C(O)N(CC2O)C3C1)OCO5 (some centres undefined) | 2.98 µM (inactive) | 2.94 µM (inactive) |  | 2.97 µM (inactive) | 3.09 µM (inactive) | 3.48 µM (inactive) | 1.98 µM (inactive) | 3.87 µM (inactive) | 3.06 µM (inactive) | 36.5 µM (inactive) | 2.8 µM (inactive) | 3.56 µM (inactive) | 9.23 µM (inactive) | 5.04 µM (inactive) | 4.15 µM (inactive) | 4 µM (inactive) | 3.35 µM (inactive) | 3.61 µM (inactive) | 1.86 µM (inactive)
Cn1c(=O)c2c(ncn2CCCCOc2ccc3c(c2)[n+]([O-])nc(N)[n+]3[O-])n(C)c1=O | 12.9 µM (inactive) | 17 µM (inactive) | 19.2 µM (inactive) | 28.1 µM (inactive) | 4.76 µM (inactive) | 20.9 µM (inactive) | 11.9 µM (inactive) | 30.5 µM (inactive) | 11.8 µM (inactive) | 19.4 µM (inactive) | 41.8 µM (inactive) | 21.3 µM (inactive) | 21.1 µM (inactive) | 34.7 µM (inactive) | 37.4 µM (inactive) | 49.2 µM (inactive) | 2.38 µM (inactive) | 18.3 µM (inactive) | 23.9 µM (inactive)
